Measured values: patent publication US5482954A, “Signal transduction inhibitor triazole and diazole compounds” (priority 1994, dated 1996)
Several values for one entry are separate records, joined by “and”; a condition that tells them apart may be missing. Identical values can stand only once. Like-named read-outs stand apart in the source and are kept apart here.

How the values were obtained:
[1] = test system: A2058 melanoma cells; test: Reversibility of inhibition of tumor cell motility; assay type: cell-based, human; conditions: for activity at 1 µg/mL / activity at 5 µg/mL: Homo sapiens, read-out: Motility (% of control)
Protocol: The cell motility assay has been described. See, Stracke et al., Biochem. Biophys. Res. Comm., 146:339-345 (1987). Cells from the A2058 human melanoma line which was maintained in subconfluent culture were harvested with trypsin-EDTA, and were allowed to recover for 1 hr at room temperature. Cells from the 5R H-ras transformed (diploid) rat embryo fibroblast line were harvested with 2 mM EDTA in PBS without divalent cations. Cells were resuspended in serum-free media containing 0.1% BSA. This DMEM/0.1% BSA was used as the control for all subsequent assays. The assays were performed in triplicate using a 48-well chemotaxis chamber with 8μ Nucleopore, type IV collagen-coated filters. The chambers were incubated at 37° C. for 4 hr, stained and placed onto glass slides with the original cell side up so that the cell pellet could be wiped from the surface. Cells that had migrated through the pores were trapped between glass and membrane and could be quantitated by laser densitometry.
Reversibility of cell motility which had been inhibited by compound 1 was determined by removing the compound from the incubation media. Thus, A2058 melanoma cells were cultured for 24 hr in standard media (DMEM/10% FCS), washed twice with saline, and cultured with DMEM/10% FCS with (+) or without (-) compound 1 for 24 hr. Cells were then washed and the treatments were reversed. The resulting cells are classified as "treated" (±, run as a control to test cell response following the incubation and washing steps), "washout" (±, run to evaluate reversibility), and "control". Control cells were washed and fed with standard media alone at each change point. Table E provides the results expressed as a percent of control cell motility at two concentrations of compound 1.

[2] = test system: A2058 and 5R cells; test: Reversibility of inhibition of tumor cell adhesion; assay type: cell-based; conditions: for activity at 1 µg/mL / activity at 5 µg/mL: Homo sapiens, read-out: Adhesion (% of control)
Protocol: An adhesion assay was developed using tissue culture plastic petri dishes as the substrate. Aliquots of cells treated similarly to those in the cell motility assay were plated in triplicate onto the dishes and incubated for 90 rain at 37° C. Cells which were either poorly adherent or nonadherent were gently washed off with PBS. The remaining cells were stained with Diff Quik™ (from Baxter Scientific Products, McGaw Park. Ill., USA). Adherence was quantitated using laser densitometry and values were calculated as a percentage of the control adherence.
As with cell motility, the effect of compound 1 on cell adhesion is reversible. A2058 and 5R cells were treated as above for testing the reversibility of cell motility. The resulting "treated" cells (±), "washout" cells (±), and "control" cells were then subjected to the adhesion assay.

[3] = test system: CHOm5 cells; test: Carbachol-stimulated generation of inositol phosphates; assay type: cell-based, Chinese hamster; conditions: concentrations above 10 μM
Protocol: This example illustrates the effect of compound 1 on the generation and release of phosphatidyl inositol from either A2058 cells (stimulated with autocrine motility factor) or CHOm5 cells (stimulated with carbachol).
A second assay utilized CHO cells which were transfected with and stably expressed the m5 subtype of the muscarinic acetylcholine receptor.
CHOm5 cells were incubated with [^3 H]inositol (0.5 μCi/well) for 18 to 24 hr. Before the addition of test compounds, the cells were washed twice with 250 μL of serum-free media supplemented with 20 mM HEPES and 10 mM lithium chloride. The test compounds were added in a final volume of 250 μL and the reaction was allowed to proceed for 15 min at 37° C. The reaction was stopped by the addition of 250 μL of an ice-cold solution containing 1M KOH, 18 mM Na2 B4 O7, 3.8 mM EDTA and 7.6 mM NaOH. The stop solution was neutralized immediately with the addition of 250 μL of a solution containing 7.5% HCl. Released inositol phosphates were separated by anion exchange chromatography.

[4] = test system: 5R cells; test: Oral treatment, prevention of experimental metastasis; assay type: in vivo, nude mice
Protocol: Finally, compound 1 was tested for efficacy in prevention of the formation and growth of experimental metastases. Oral administration of compound 1 or PEG-400 vehicle to nude mice was carried out for 5 days. On day 6, untreated 5R cells (10^4) were introduced into the animals by tail vein inoculation. The animals were then randomized into four groups. Two groups of animals which had received only vehicle were subsequently treated with either vehicle (PEG/PEG) or 1 (PEG/1). The other two groups which had been treated with 1 were similarly treated post-inoculation with either vehicle (1/PEG) or 1 (1/1). Treatments were continued for 10 d, after which the lungs were removed and the pulmonary metastases were counted. Histologic confirmation of the fibrosarcoma due to the 5R cells was obtained. […] No toxicity was noted during treatment or at necropsy.

[5] = test system: solid tumor metastasis; test: Phase I clinical study, tumor response; assay type: in vivo, human
Text: This example illustrates the effect of compound 1 on tumor growth and metastasis when administered orally to seven patients in an FDA approved phase I clinical study.
(§1) Seven patients with solid tumor metastasis are undergoing treatment via oral administration of compound 1 under the FDA approved phase I clinical study. Table J provides data on the patients' response to this treatment. PT# is patient number. Response is the sum of the products of bidirectional measurements. No measurement means that while the disease was evaluable, it was not measureable. The concentration of the drug in the blood of the patients is well within the range which inhibits signal transduction in vitro and which inhibits tumor growth in vitro and in animals.

[6] = Plasma levels in patients of phase I clinical study; assay type: in vivo; conditions: human, po
Text: as §1
The concentration of compound 1 in the blood of patient #1 was from 1-2 μg/mL, while that of the other three patients was >3 μg/mL (>7 μM). These concentrations are well within the range which inhibit signal transduction in vitro and which inhibit tumor growth in animals.

[7] = test system: A2058 or 5R cells; test: Cell spreading; assay type: cell-based
Protocol: Cells were preincubated with compound 1 (0.03-10 μg/mL) for periods of 2 to 48 hr prior to the adhesion assay. In addition, compound 1 remained present during the assay. […] Maximal inhibition of adhesion was observed following overnight exposure of the cells to compound 1.

[8] = patient 1, melanoma, 100 mg/m^2 qod
[9] = patient 2, colon, 100 mg/m^2 qd
[10] = patient 4, ovary, 100 mg/m^2 qd

NC(=O)c1nnn(Cc2cc(Cl)c(C(=O)c3ccc(Cl)cc3)c(Cl)c2)c1N [Compound 1]
activity at 1 µg/mL ([1]; A2058, 1 μg/mL (+/-)): 97%
activity at 1 µg/mL ([1]; A2058, 1 μg/mL (-/+)): 59%
activity at 5 µg/mL ([1]; A2058, 5 μg/mL (+/-)): 94%
activity at 5 µg/mL ([1]; A2058, 5 μg/mL (-/+)): 27%
reversibility of motility inhibition ([1]; removal of the compound from the culture medium): could be reversed by removal of the compound from the culture medium
reversibility of adhesion inhibition [2]: reversible
activity at 1 µg/mL ([2]; A2058, 1 μg/mL (+/-)): 106%
activity at 1 µg/mL ([2]; A2058, 1 μg/mL (-/+)): 33%
activity at 5 µg/mL ([2]; A2058, 5 μg/mL (+/-)): 96%
activity at 5 µg/mL ([2]; A2058, 5 μg/mL (-/+)): 37%
inhibition of carbachol-stimulated generation of inositol phosphates [3]: partially inhibited
toxicity ([4]; during treatment or at necropsy): No toxicity
metastatic colonization ([4]; given prior to tumor cell injection): prevented metastatic colonization as effectively as when 1 was administered only after tumor cell inoculation or when given continuously
number of pulmonary metastases ([4]; treatment prior to, post, or prior to and post inoculation): statistically significantly inhibited
RESPONSE [5, 8]: Stable
RESPONSE (sum of products of bidirectional measurements) [5, 8]: +8%
inhibition of growth rate (cm^2 /day) ([5]; patient 1, metastasis lesion #1, X-ray): 79%
inhibition of growth rate (cm^2 /day) ([5]; patient 1, metastasis lesion #2, X-ray): 59%
suppression and regression of colon cancer metastases ([5]; patient 2): suppression and regression of 3 of 3 colon cancer metastases
RESPONSE [5, 9]: Stable
RESPONSE (sum of products of bidirectional measurements) [5, 9]: -22%
RESPONSE ([5]; patient 3, colon, 100 mg/m^2 qd): Stable
RESPONSE [5, 10]: Stable
RESPONSE (sum of products of bidirectional measurements) [5, 10]: -21%
RESPONSE ([5]; patient 5, lung, 200 mg/m^2 qod): Stable
RESPONSE ([5]; patient 6, carcinoid, 200 mg/m^2 qod): Stable
RESPONSE ([5]; patient 7, colon, 200 mg/m^2 qod): Progres-
Cmax ([6]; 100 mg/m^2, patient 1, melanoma, 100 mg/m^2 qod, oral, read-out: PEAK LEVEL): 1250 ng/mL
Cmax ([6]; 100 mg/m^2, patient 2, colon, 100 mg/m^2 qd, oral, read-out: PEAK LEVEL): 3610 ng/mL
Cmax ([6]; 100 mg/m^2, patient 3, colon, 100 mg/m^2 qd, oral, read-out: PEAK LEVEL): 3530 ng/mL
Cmax ([6]; 100 mg/m^2, patient 4, ovary, 100 mg/m^2 qd, oral, read-out: PEAK LEVEL): 3080 ng/mL
Cmax ([6]; 200 mg/m^2, patient 5, lung, 200 mg/m^2 qod, oral, read-out: PEAK LEVEL): 1770 ng/mL
Cmax ([6]; 200 mg/m^2, patient 6, carcinoid, 200 mg/m^2 qod, oral, read-out: PEAK LEVEL): 1340 ng/mL
Cmax ([6]; 200 mg/m^2, patient 7, colon, 200 mg/m^2 qod, oral, read-out: PEAK LEVEL): 2830 ng/mL
Cmax ([6]; other three patients of FIG. 19, read-out: concentration in the blood (peak/steady state)): > 3000 ng/mL and > 7 µM
Cmax ([6]; patient #1, read-out: concentration in the blood (peak/steady state)): 1000 to 2000 ng/mL
cell spreading [7]: not markedly decreased
